According to PubChem BioAssay AID493059 (The Scripps Research Institute Molecular Screening Center, 2011):
Active and inactive are the calls of the source.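 Rule for the calls: active = share of cells pushed into apoptosis exceeding a set limit, after 48 hr at 25 µM; inactive = the rest.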

System: 2B4 cells apoptosis, DAPI nuclear morphology
Test: pro-apoptotic activity by DAPI nuclear scoring – imaging, DAPI fluorescence, 2B4 cells, MCL1-BIM inhibitor project, late-stage follow-up (AID 493059)
Details: for apoptosis: at 25 µM, active compounds read high

SMILES	apoptosis	outcome
O=C(Cn1cnc2sc(-c3ccccc3)cc2c1=O)NCc1ccco1	3.6% (inactive)	–
COC(=O)c1ccccc1NCc1cc(=O)oc2cc(O)c(O)cc12	14% (inactive)	–
C=CCn1c(SCC(=O)c2ccc(O)c(O)c2)nnc1-c1cccnc1	3.5% (inactive)	–
COc1ccc(-n2cccc2/C=C2\C(=N)N3N=C(c4ccco4)SC3=NC2=O)cc1	3.7% (inactive)	–
c1coc(-c2nc(-c3ccco3)c(-c3ccco3)nc2-c2ccco2)c1	0% (inactive)	–
CCc1sc(C(C2C(=O)CC(C)(C)CC2=O)C2C(=O)CC(C)(C)CC2=O)cc1[N+](=O)[O-]	3.5% (inactive)	–
O=C(NN=Cc1ccc(-c2ccc(S(=O)(=O)Nc3ncccn3)cc2)o1)c1cc2ccccc2cc1O	18%	–
O=C(NN=Cc1cccc(F)c1)c1cc(-c2ccco2)nc2ccccc12	3% (inactive)	–
Nc1ccc(C(=O)NN=Cc2cc(N=Nc3cccc4ccccc34)ccc2O)cc1	15%	–
O=C1COc2ccc(C(=O)COC(=O)/C=C/c3ccc(Br)o3)cc2N1	3.4% (inactive)	–
O=[N+]([O-])c1cc(CN2CCCC2)c2cccnc2c1O	1.7% (inactive)	–
COc1ccc(Cc2nnc(NC(=O)Cc3cccs3)s2)cc1OC	0% (inactive)	–
Cc1cccc(NC(=O)CNC(=O)c2cccc(-n3cccc3)c2)c1C	1.9% (inactive)	–
Cc1cc(NC(=O)Cc2cccs2)no1	–	inactive
O=C(/C=C/c1ccc(Cl)c([N+](=O)[O-])c1)Nc1ccc(N2CCCC2)cc1	–	inactive
COc1ccc(NC(=O)CN(C)C(=O)c2cc3c(s2)CCC3)cc1	1.8% (inactive)	–
C=CCN=c1scc(-c2ccco2)n1/N=C/c1ccc(O)c(O)c1O	98%	–
Cc1c(Cl)cccc1NS(=O)(=O)c1ccc2c(c1)C1C=CCC1C(c1ccc(C(=O)O)cc1)N2 (stereo not drawn)	0% (inactive)	–
CCOc1ccc(NC(=O)c2cccc(-n3cccc3)c2)cc1S(=O)(=O)N1CCOCC1	6.1% (inactive)	–
c1ccc(CSc2nnc(-c3ccco3)c(-c3ccco3)n2)cc1	14% (inactive)	–
O=C(O)COc1ccccc1C(Nc1ccccn1)c1cc(Cl)c2cccnc2c1O (stereo not drawn)	5.1% (inactive)	–
CC(C)n1c(SCC(=O)Nc2nncs2)nnc1-c1ccco1	0% (inactive)	–
Cc1ccc(C(=O)O)cc1-c1ccc(/C=C2\SC(=O)N(CC(=O)Nc3ccc4c(c3)OCO4)C2=O)o1	–	inactive
